For one test, the system named is SKCa channel. Description: Ion channel SKCa binding. The following applies: [^125I]apamin, Rat cerebral cortex.
The next test concerns α2 (non-selective). Description: Adrenergic receptor α2 binding. To be noted: [^3H]RX 821002, Rat cerebral cortex.
The next test concerns the target CysLT1 (Cys-LTs) (Homo sapiens, UniProt Q9Y271). Description: Eicosanoid receptor CysLT1 binding. The following applies: [^3H]LTD4, HEK-293 cells, read-out: CR6086 Activity at 10µM.
The target in the next test is PPARγ (Homo sapiens, UniProt P37231). Description: Nuclear receptor PPARγ binding. The following applies: [^3H]rosiglitazone, Human recombinant E.Coli, read-out: CR6086 Activity at 10µM.
Another test addresses GAL1 (Homo sapiens, UniProt P47211). Description: Galanin receptor GAL1 binding. The following applies: [^125I]galanin, Human recombinant HEK-293 cells, read-out: CR6086 Activity at 10µM.
The target in the next test is H1 (Homo sapiens, UniProt P35367). As to the kind of experiment: Histamine receptor H1 binding. To be noted: [^3H]pyrilamine, Human recombinant HEK-293 cells, read-out: CR6086 Activity at 10µM.
In another test the target is AR (Homo sapiens, UniProt P10275, T878A). Description: Nuclear receptor AR binding. To be noted: [^3H]methyltrienolone, LNCaP cells, read-out: CR6086 Activity at 10µM.
A further test concerns the target M2 (Homo sapiens, UniProt P08172). As to the kind of experiment: Muscarinic acetylcholine receptor M2 binding. The following applies: [^3H]AF-DX 384, Human recombinant CHO cells, read-out: CR6086 Activity at 10µM.
The target of the next test is T1, EP2 (Homo sapiens, UniProt P43116).
T1 construct: host or cells: HEK-293 cells
Description: Eicosanoid receptor EP2 binding. The following applies: [^3H]PGE2, HEK-293 cells, read-out: CR6086 Activity at 10µM.

For a further test, the target named is T2, human EP4 receptor (Homo sapiens, UniProt P35408).
T2 construct: expressed in transfected cells
Description: EP4 radioligand binding assay ([^3H]PGE2), human receptor. To be noted: for Ki: read-out: Ki CR6086. The text has this:
The complementary DNA (cDNA) clone of the human EP4 receptor (hEP4R; NM_000958.2) was obtained from Thermo Fisher Scientific (Ultimate ORF Clone Collection, clone ID IOH46525; Waltham, MA, USA). The coding sequence was subcloned in expression vector pcDNATM6.2/V5-DEST by using Invitrogen Gateway technology (Thermo Fisher Scientific). Human embryonic kidney cells 293 (HEK293) were obtained from the American Type Culture Collection (ATCC; Manassas, VA, USA) and transfected with expression vector for hEP4R according to the method described in the FuGENE 6 Transfection Reagent technical manual (Promega, Madison, WI, USA). The clones overexpressing the protein were selected for Blasticidin S HCl (Thermo Fisher Scientific) resistance. The selected clone was grown in DMEM containing 10% FBS and 10 μg/ml Blasticidin S HCl (selection medium) at 37 °C in a humidified atmosphere of 5% CO2 in air.
Membranes expressing the human EP4 receptor were prepared from stably transfected HEK293 cell line. Cells were grown adherent in DMEM with GlutaMAX-I (Thermo Fisher Scientific) containing 10% FBS and Blasticidin 10 μg/ml at 37 °C in a humidified atmosphere with 5% CO2. Membranes expressing the mouse or rat EP4 receptor were prepared from transiently transfected HEK293 cells. Cells were grown adherent in DMEM with GlutaMAX-I containing 10% FBS at 37 °C in a humidified atmosphere with 5% CO2. For the preparation of all cell membranes, culture medium was aspirated from 150-cm^2 flasks into which cells were seeded. Cell monolayers were then washed with 10 ml of hypotonic lysis buffer (Tris 5 mM + ethylenediaminetetraacetic acid [EDTA] 5 mM, pH 7.4), detached, and lysed with 10 ml + 10 ml of lysis buffer by mechanical scraping. Lysates were vortexed for 30 seconds and centrifuged at 40,000 × g for 22 minutes at 4 °C. Pellets were stored at −80 °C until use. Protein content of the cell membrane suspension was determined using bovine serum albumin (BSA) as a standard.
Experimental procedures were performed according to the method of Abramovitz et al.. [^3H]PGE2 (PerkinElmer, Waltham, MA, USA) binding assays for recombinant EP4 receptors were performed in 10 mM 2-(N-morpholino)ethanesulphonic acid-KOH buffer, pH 6, containing 10 mM MgCl2 and 1 mM CaCl2. Ten micrograms of protein from membrane fractions were incubated in a total volume of 0.1 ml with 1–1.5 nM [^3H]PGE2. To determine the total binding or non-specific binding, 1% dimethyl sulphoxide (DMSO) or 1 μM PGE2 was added to the reaction mixture. Incubation was carried out in 96-well multi-well plates for 90 minutes at room temperature prior to separation of the bound and free radioligand by rapid filtration on glass-fibred filters (UniFilter-96 GF/B; PerkinElmer) pre-soaked in 0.3% polyethylenimine. […] The residual [^3H]PGE2 binding was determined using a solid scintillation counter (TopCount; PerkinElmer) after at least 1 h of stabilisation. In saturation binding studies, isotherm-binding curves generated with six to eight different concentrations of [^3H]PGE2 (from 0.5 to 25 nM) were evaluated. […]
Specific binding to the receptors was defined as the difference between total binding and non-specific binding, as determined in the presence of an excess of unlabelled ligand. Binding isotherm curves were analysed to determine the equilibrium binding parameters, affinity (dissociation constant [Kd]) and maximal binding capacity of labelled ligand. Competition curves were analysed to assess the half-maximal inhibitory concentration (IC50). […]

Setting [1] is: equilibrium binding, CR6086 50 nM.

Where two headings read alike, the source gives them in different places.

T2 sequence (P35408 whole entry): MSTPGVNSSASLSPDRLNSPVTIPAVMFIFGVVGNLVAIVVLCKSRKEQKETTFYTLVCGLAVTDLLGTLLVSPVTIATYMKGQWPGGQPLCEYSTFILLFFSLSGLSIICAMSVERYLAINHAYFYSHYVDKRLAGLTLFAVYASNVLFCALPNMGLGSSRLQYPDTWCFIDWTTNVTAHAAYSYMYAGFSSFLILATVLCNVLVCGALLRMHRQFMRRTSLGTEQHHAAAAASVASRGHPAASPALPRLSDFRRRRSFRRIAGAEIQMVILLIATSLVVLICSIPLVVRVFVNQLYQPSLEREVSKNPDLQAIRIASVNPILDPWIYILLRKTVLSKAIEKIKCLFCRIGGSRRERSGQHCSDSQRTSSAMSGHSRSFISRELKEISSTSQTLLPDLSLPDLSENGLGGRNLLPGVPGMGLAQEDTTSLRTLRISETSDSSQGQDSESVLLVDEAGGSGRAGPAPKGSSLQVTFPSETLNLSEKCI
Sequence of AR (P10275 whole entry T878A): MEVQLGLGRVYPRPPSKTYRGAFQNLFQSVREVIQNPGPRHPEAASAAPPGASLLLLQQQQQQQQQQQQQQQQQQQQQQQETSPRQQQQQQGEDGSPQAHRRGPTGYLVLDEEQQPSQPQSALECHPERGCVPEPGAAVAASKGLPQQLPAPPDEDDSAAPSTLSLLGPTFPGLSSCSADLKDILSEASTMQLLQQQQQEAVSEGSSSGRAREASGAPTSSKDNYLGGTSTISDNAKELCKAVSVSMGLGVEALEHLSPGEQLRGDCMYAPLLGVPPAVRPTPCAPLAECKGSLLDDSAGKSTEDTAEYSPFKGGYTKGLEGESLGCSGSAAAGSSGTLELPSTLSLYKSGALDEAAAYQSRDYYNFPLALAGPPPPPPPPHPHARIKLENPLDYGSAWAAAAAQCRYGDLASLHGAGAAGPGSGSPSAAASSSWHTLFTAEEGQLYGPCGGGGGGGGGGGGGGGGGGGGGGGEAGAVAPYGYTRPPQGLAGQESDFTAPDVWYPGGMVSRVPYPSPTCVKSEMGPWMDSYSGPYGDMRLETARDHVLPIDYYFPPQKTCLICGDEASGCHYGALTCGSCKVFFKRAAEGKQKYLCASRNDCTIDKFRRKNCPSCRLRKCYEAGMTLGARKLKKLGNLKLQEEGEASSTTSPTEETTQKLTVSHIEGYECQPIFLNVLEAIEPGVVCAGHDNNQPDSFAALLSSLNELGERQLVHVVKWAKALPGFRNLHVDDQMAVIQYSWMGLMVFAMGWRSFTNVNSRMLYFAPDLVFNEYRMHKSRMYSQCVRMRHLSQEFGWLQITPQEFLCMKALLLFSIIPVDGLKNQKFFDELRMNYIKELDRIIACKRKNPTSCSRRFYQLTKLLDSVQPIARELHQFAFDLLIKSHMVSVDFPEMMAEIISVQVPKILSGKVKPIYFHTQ
Sequence of CysLT1 (Cys-LTs) (Q9Y271 whole entry, species assumed): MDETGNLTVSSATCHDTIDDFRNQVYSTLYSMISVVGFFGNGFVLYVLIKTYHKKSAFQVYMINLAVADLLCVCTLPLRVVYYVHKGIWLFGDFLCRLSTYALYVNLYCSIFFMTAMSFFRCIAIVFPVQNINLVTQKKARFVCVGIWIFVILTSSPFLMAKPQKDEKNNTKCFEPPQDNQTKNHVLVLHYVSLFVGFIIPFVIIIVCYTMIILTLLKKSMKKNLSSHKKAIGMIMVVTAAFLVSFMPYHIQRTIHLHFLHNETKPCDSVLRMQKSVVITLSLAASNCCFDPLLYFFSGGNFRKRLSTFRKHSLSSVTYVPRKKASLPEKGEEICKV
Sequence of M2 (P08172 whole entry): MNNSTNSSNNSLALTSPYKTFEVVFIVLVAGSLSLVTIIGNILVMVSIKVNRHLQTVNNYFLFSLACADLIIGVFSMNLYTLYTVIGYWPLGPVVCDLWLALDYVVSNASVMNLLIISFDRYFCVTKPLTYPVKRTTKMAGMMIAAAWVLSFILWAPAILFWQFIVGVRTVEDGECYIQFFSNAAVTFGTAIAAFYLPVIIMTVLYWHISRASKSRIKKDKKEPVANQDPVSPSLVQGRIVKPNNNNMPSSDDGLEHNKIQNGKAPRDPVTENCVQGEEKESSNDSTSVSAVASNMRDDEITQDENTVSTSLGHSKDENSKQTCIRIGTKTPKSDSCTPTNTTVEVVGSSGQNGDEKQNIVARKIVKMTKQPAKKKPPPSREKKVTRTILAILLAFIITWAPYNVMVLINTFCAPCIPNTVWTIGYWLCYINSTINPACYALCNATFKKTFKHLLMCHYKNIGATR
T1 sequence (P43116 whole entry): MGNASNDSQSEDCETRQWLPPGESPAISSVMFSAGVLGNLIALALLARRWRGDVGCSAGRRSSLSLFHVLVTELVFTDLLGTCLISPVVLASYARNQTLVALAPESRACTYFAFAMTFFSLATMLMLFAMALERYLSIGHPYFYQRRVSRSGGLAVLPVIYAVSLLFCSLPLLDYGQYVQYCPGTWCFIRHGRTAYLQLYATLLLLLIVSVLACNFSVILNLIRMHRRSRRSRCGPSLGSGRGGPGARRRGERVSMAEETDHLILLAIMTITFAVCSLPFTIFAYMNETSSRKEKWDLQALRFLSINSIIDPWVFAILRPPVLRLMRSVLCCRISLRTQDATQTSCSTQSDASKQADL
Sequence of GAL1 (P47211 whole entry): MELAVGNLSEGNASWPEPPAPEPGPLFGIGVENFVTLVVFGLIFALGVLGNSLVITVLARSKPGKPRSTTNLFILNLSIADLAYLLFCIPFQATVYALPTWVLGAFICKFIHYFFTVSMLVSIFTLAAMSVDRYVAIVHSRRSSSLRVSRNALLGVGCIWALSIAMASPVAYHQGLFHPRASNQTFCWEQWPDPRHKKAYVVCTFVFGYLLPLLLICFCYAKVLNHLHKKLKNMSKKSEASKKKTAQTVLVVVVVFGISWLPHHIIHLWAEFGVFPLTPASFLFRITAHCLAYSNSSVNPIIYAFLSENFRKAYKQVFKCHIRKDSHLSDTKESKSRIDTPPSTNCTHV
Sequence of H1 (P35367 whole entry): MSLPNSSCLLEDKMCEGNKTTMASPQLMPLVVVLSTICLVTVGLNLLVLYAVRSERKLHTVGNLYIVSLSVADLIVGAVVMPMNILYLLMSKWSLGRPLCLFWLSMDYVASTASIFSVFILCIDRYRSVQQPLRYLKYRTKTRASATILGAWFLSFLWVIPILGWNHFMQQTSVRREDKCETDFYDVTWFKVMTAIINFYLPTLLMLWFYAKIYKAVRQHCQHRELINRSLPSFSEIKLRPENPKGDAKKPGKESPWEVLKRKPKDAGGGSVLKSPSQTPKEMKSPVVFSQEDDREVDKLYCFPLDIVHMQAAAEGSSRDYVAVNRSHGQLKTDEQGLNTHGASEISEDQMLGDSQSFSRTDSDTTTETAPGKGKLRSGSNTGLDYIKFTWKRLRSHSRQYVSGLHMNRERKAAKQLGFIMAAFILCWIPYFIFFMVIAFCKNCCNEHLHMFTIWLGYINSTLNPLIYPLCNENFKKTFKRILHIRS
Sequence of PPARγ (P37231 whole entry): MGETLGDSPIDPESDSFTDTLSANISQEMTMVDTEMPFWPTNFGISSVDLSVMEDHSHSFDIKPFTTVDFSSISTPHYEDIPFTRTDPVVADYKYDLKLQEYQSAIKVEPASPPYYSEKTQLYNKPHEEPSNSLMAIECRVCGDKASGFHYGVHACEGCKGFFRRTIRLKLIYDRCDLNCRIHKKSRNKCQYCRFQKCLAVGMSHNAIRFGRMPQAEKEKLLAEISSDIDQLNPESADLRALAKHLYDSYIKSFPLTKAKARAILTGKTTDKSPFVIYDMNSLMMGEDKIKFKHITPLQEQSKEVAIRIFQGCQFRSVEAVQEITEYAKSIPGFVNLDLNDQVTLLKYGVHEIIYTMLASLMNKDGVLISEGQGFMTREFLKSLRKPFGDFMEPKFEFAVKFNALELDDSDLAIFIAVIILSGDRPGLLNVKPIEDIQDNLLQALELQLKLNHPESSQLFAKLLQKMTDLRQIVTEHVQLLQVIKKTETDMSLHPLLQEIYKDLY

Regarding `O=C([O-])c1ccc(C2(NC(=O)[C@H]3CC4(CCN3Cc3ccc(C(F)(F)F)cc3)CC4)CC2)cc1.[Na+]` [CR6086, Sodium (R)-4-(1-(6-(4-(trifluoromethyl)benzyl)-6-azaspiro[2.5]octane-5-carboxamido)cyclopropyl)benzoate], the “CR6086 Activity at 10µM” value in the test on SKCa channel and in the test on α2 (non-selective) was “IN (IN = < 20% displacement or inhibition (all tables))” throughout. For the same compound, the inhibition at 10 µM on CysLT1 (Cys-LTs), at PPARγ, at GAL1, at H1, on AR and on M2 was below 20% in each case. Moreover, on EP2, the inhibition at 10 µM is below 20%. The Ki on human EP4 receptor ([^3H]PGE2 displacement, HEK293 membranes, absence of BSA) turned out to be 16.6 nM; on human EP4 receptor (after addition of 0.5% BSA in the assay buffer), 15.5 nM. Further, the “change in [^3H]PGE2 affinity in the presence of CR6086” value at human EP4 receptor (setting [1]) is given as “fourfold decrease”. For the same compound, at human EP4 receptor (setting [1]), the “change in maximal binding capacity of [^3H]PGE2” value is “+20%”. In addition, the type of antagonism result on human EP4 receptor (setting [1]) is listed as “competitive antagonist”.

The record behind these values is paper PMC5831858, “Pharmacological characterisation of CR6086, a potent prostaglandin E2 receptor 4 antagonist, as a new potential disease-modifying anti-rheumatic drug” (Arthritis Research & Therapy, 2018).
